In US11083725B2 (priority 2014, dated 2021):

System: NHBE cells
Assay: Biolog metabolic array: substrate use by NHBE cells with or without CA09 infection
Type: cell-based, human
Details: for Substrate use, 590 nm absorbance normalized to zero hour, 1 hr: Biolog PMM2, 1 hr; for Substrate use, 590 nm absorbance normalized to zero hour, 5 hr: Biolog PMM2, 5 hr; for Substrate use, 590 nm absorbance normalized to zero hour, 7 hr: Biolog PMM2, 7 hr; for Substrate use, 590 nm absorbance normalized to zero hour, 0 hr: Biolog PMM2, 0 hr
[1] = Control (uninfected) NHBE cells
[2] = Virus (CA09, MOI 1) infected NHBE cells
[3] = Virus (CA09-infected, MOI 1) NHBE cells
[4] = Virus (CA09-infected NHBE cells, MOI 1)
[5] = Virus: CA09-infected NHBE cells, MOI 1, Biolog PMM2

NC(=O)CCC(=O)O [Succinamic Acid]
590 nm absorbance normalized to zero hour (substrate use), 1 hr [1]: 1.11 | 590 nm absorbance normalized to zero hour (substrate use), 2 hr [1]: 0.37 | 590 nm absorbance normalized to zero hour (substrate use), 3 hr [1]: 0.42 | 590 nm absorbance normalized to zero hour (substrate use), 4 hr [1]: 0.42 | 590 nm absorbance normalized to zero hour (substrate use), 6 hr [1]: 0.44 | 590 nm absorbance normalized to zero hour (substrate use), 8 hr [1]: 0.51 | 590 nm absorbance normalized to zero hour (substrate use), 9 hr [1]: 0.54 | 590 nm absorbance normalized to zero hour (substrate use), 10 hr [1]: 0.56 | 590 nm absorbance normalized to zero hour (substrate use), 11 hr [1]: 0.61 | Substrate use, 590 nm absorbance normalized to zero hour, 1 hr [1]: 1.11 | Substrate use, 590 nm absorbance normalized to zero hour, 5 hr [1]: 0.45 | Substrate use, 590 nm absorbance normalized to zero hour, 7 hr [1]: 0.50 | Substrate use, 590 nm absorbance normalized to zero hour, 1 hr [2]: 1.45 | Substrate use, 590 nm absorbance normalized to zero hour, 5 hr [2]: 2.03 | Substrate use, 590 nm absorbance normalized to zero hour, 7 hr [2]: 2.22 | 590 nm absorbance normalized to zero hour (substrate use), 1 hr [3]: 1.45 | 590 nm absorbance normalized to zero hour (substrate use), 2 hr [3]: 1.65 | 590 nm absorbance normalized to zero hour (substrate use), 3 hr [3]: 1.88 | 590 nm absorbance normalized to zero hour (substrate use), 4 hr [3]: 1.85 | 590 nm absorbance normalized to zero hour (substrate use), 6 hr [3]: 2.14 | 590 nm absorbance normalized to zero hour (substrate use), 8 hr [3]: 2.30 | 590 nm absorbance normalized to zero hour (substrate use), 9 hr [3]: 2.41 | 590 nm absorbance normalized to zero hour (substrate use), 10 hr [3]: 2.37 | 590 nm absorbance normalized to zero hour (substrate use), 11 hr [3]: 2.51

CCC(=O)C(=O)O [a-Keto-Butyric Acid]
590 nm absorbance normalized to zero hour (substrate use), 0 hr [1]: 1.00 | 590 nm absorbance normalized to zero hour (substrate use), 1 hr [1]: 1.10 | 590 nm absorbance normalized to zero hour (substrate use), 2 hr [1]: 1.17 | 590 nm absorbance normalized to zero hour (substrate use), 3 hr [1]: 1.24 | 590 nm absorbance normalized to zero hour (substrate use), 4 hr [1]: 1.25 | 590 nm absorbance normalized to zero hour (substrate use), 6 hr [1]: 1.49 | 590 nm absorbance normalized to zero hour (substrate use), 8 hr [1]: 1.34 | 590 nm absorbance normalized to zero hour (substrate use), 9 hr [1]: 1.36 | 590 nm absorbance normalized to zero hour (substrate use), 10 hr [1]: 1.37 | 590 nm absorbance normalized to zero hour (substrate use), 11 hr [1]: 1.39 | Substrate use, 590 nm absorbance normalized to zero hour, 0 hr [1]: 1.00 | Substrate use, 590 nm absorbance normalized to zero hour, 1 hr [1]: 1.10 | Substrate use, 590 nm absorbance normalized to zero hour, 5 hr [1]: 1.28 | Substrate use, 590 nm absorbance normalized to zero hour, 7 hr [1]: 1.33 | 590 nm absorbance normalized to zero hour (substrate use), 0 hr [4]: 1.00 | 590 nm absorbance normalized to zero hour (substrate use), 1 hr [4]: 0.28 | 590 nm absorbance normalized to zero hour (substrate use), 2 hr [4]: 0.29 | 590 nm absorbance normalized to zero hour (substrate use), 3 hr [4]: 0.30 | 590 nm absorbance normalized to zero hour (substrate use), 4 hr [4]: 0.31 | 590 nm absorbance normalized to zero hour (substrate use), 5 hr [4]: 0.32 | 590 nm absorbance normalized to zero hour (substrate use), 6 hr [4]: 0.32 | 590 nm absorbance normalized to zero hour (substrate use), 7 hr [4]: 0.33 | 590 nm absorbance normalized to zero hour (substrate use), 8 hr [4]: 0.33 | 590 nm absorbance normalized to zero hour (substrate use), 9 hr [4]: 0.34 | 590 nm absorbance normalized to zero hour (substrate use), 10 hr [4]: 0.34 | 590 nm absorbance normalized to zero hour (substrate use), 11 hr [4]: 0.34 | 590 nm absorbance normalized to zero hour (substrate use), 0 hr [5]: 1.00 | 590 nm absorbance normalized to zero hour (substrate use), 1 hr [5]: 0.28 | 590 nm absorbance normalized to zero hour (substrate use), 2 hr [5]: 0.29 | 590 nm absorbance normalized to zero hour (substrate use), 3 hr [5]: 0.30 | 590 nm absorbance normalized to zero hour (substrate use), 4 hr [5]: 0.31 | 590 nm absorbance normalized to zero hour (substrate use), 5 hr [5]: 0.32 | 590 nm absorbance normalized to zero hour (substrate use), 6 hr [5]: 0.32 | 590 nm absorbance normalized to zero hour (substrate use), 7 hr [5]: 0.33 | 590 nm absorbance normalized to zero hour (substrate use), 8 hr [5]: 0.33 | 590 nm absorbance normalized to zero hour (substrate use), 9 hr [5]: 0.34 | 590 nm absorbance normalized to zero hour (substrate use), 10 hr [5]: 0.34 | 590 nm absorbance normalized to zero hour (substrate use), 11 hr [5]: 0.34

O=C(O)CC(CC(=O)O)C(=O)O [Tricarballylic Acid]
590 nm absorbance normalized to zero hour (substrate use), 1 hr [1]: 1.07 | 590 nm absorbance normalized to zero hour (substrate use), 2 hr [1]: 1.03 | 590 nm absorbance normalized to zero hour (substrate use), 3 hr [1]: 0.79 | 590 nm absorbance normalized to zero hour (substrate use), 4 hr [1]: 1.20 | 590 nm absorbance normalized to zero hour (substrate use), 6 hr [1]: 0.35 | 590 nm absorbance normalized to zero hour (substrate use), 8 hr [1]: 0.54 | 590 nm absorbance normalized to zero hour (substrate use), 9 hr [1]: 0.83 | 590 nm absorbance normalized to zero hour (substrate use), 10 hr [1]: 0.74 | 590 nm absorbance normalized to zero hour (substrate use), 11 hr [1]: 0.59 | Substrate use, 590 nm absorbance normalized to zero hour, 1 hr [1]: 1.07 | Substrate use, 590 nm absorbance normalized to zero hour, 5 hr [1]: 0.72 | Substrate use, 590 nm absorbance normalized to zero hour, 7 hr [1]: 0.89 | 590 nm absorbance normalized to zero hour (substrate use), 1 hr [4]: 0.20 | 590 nm absorbance normalized to zero hour (substrate use), 2 hr [4]: 0.25 | 590 nm absorbance normalized to zero hour (substrate use), 3 hr [4]: 0.29 | 590 nm absorbance normalized to zero hour (substrate use), 4 hr [4]: 0.29 | 590 nm absorbance normalized to zero hour (substrate use), 5 hr [4]: 0.32 | 590 nm absorbance normalized to zero hour (substrate use), 6 hr [4]: 0.34 | 590 nm absorbance normalized to zero hour (substrate use), 7 hr [4]: 0.36 | 590 nm absorbance normalized to zero hour (substrate use), 8 hr [4]: 0.36 | 590 nm absorbance normalized to zero hour (substrate use), 9 hr [4]: 0.39 | 590 nm absorbance normalized to zero hour (substrate use), 10 hr [4]: 0.40 | 590 nm absorbance normalized to zero hour (substrate use), 11 hr [4]: 0.38 | 590 nm absorbance normalized to zero hour (substrate use), 1 hr [5]: 0.20 | 590 nm absorbance normalized to zero hour (substrate use), 2 hr [5]: 0.25 | 590 nm absorbance normalized to zero hour (substrate use), 3 hr [5]: 0.29 | 590 nm absorbance normalized to zero hour (substrate use), 4 hr [5]: 0.29 | 590 nm absorbance normalized to zero hour (substrate use), 5 hr [5]: 0.32 | 590 nm absorbance normalized to zero hour (substrate use), 6 hr [5]: 0.34 | 590 nm absorbance normalized to zero hour (substrate use), 7 hr [5]: 0.36 | 590 nm absorbance normalized to zero hour (substrate use), 8 hr [5]: 0.36 | 590 nm absorbance normalized to zero hour (substrate use), 9 hr [5]: 0.39 | 590 nm absorbance normalized to zero hour (substrate use), 10 hr [5]: 0.40 | 590 nm absorbance normalized to zero hour (substrate use), 11 hr [5]: 0.38

O=P(O)(O)OC[C@H](O)CO (racemic) [D,L-a-Glycerol Phosphate]
590 nm absorbance normalized to zero hour (substrate use), 0 hr [1]: 1.00 | 590 nm absorbance normalized to zero hour (substrate use), 1 hr [1]: 0.34 | 590 nm absorbance normalized to zero hour (substrate use), 2 hr [1]: 0.48 | 590 nm absorbance normalized to zero hour (substrate use), 3 hr [1]: 0.56 | 590 nm absorbance normalized to zero hour (substrate use), 4 hr [1]: 0.60 | 590 nm absorbance normalized to zero hour (substrate use), 6 hr [1]: 0.71 | 590 nm absorbance normalized to zero hour (substrate use), 8 hr [1]: 0.83 | 590 nm absorbance normalized to zero hour (substrate use), 9 hr [1]: 0.91 | 590 nm absorbance normalized to zero hour (substrate use), 10 hr [1]: 0.91 | 590 nm absorbance normalized to zero hour (substrate use), 11 hr [1]: 1.05 | Substrate use, 590 nm absorbance normalized to zero hour, 0 hr [1]: 1.00 | Substrate use, 590 nm absorbance normalized to zero hour, 1 hr [1]: 0.34 | Substrate use, 590 nm absorbance normalized to zero hour, 5 hr [1]: 0.70 | Substrate use, 590 nm absorbance normalized to zero hour, 7 hr [1]: 0.79 | Substrate use, 590 nm absorbance normalized to zero hour, 0 hr [2]: 1.00 | Substrate use, 590 nm absorbance normalized to zero hour, 1 hr [2]: 2.01 | Substrate use, 590 nm absorbance normalized to zero hour, 5 hr [2]: 3.72 | Substrate use, 590 nm absorbance normalized to zero hour, 7 hr [2]: 4.18 | 590 nm absorbance normalized to zero hour (substrate use), 0 hr [3]: 1.00 | 590 nm absorbance normalized to zero hour (substrate use), 1 hr [3]: 2.01 | 590 nm absorbance normalized to zero hour (substrate use), 2 hr [3]: 2.64 | 590 nm absorbance normalized to zero hour (substrate use), 3 hr [3]: 3.07 | 590 nm absorbance normalized to zero hour (substrate use), 4 hr [3]: 3.24 | 590 nm absorbance normalized to zero hour (substrate use), 6 hr [3]: 3.99 | 590 nm absorbance normalized to zero hour (substrate use), 8 hr [3]: 4.43 | 590 nm absorbance normalized to zero hour (substrate use), 9 hr [3]: 4.93 | 590 nm absorbance normalized to zero hour (substrate use), 10 hr [3]: 5.12 | 590 nm absorbance normalized to zero hour (substrate use), 11 hr [3]: 5.62
